In patent US20130058998A1, “ENCAPSULATED N-ACETYLMANNOSAMINE OR N-ACETYLNEURAMINIC ACID TO INCREASE SIALYLATION” (United States of America as represented by the Secretary, …, priority 2011, published 2013):

Legend:
cultured cells = conditions: Charter et al. 2000; cited from earlier work
[1] = test system: HIBM Gne M712T mutated pups; assay: Survival of mutant HIBM Gne M712T pups after treatment; format: in vivo, mouse; conditions: for survival of mutant pups at P5: Gne M712T mutant pups, untreated 8% survived; for survival rates: orally delivered in drinking water, -/- pups
[2] = test system: Gne-deficient mouse embryonic stem cells; conditions: growth medium supplemented with ManNAc; Schwarzkopf et al. 2002; cited from earlier work
[3] = oral (not liposome-embedded), addition to drinking water

Row | SMILES | incorporation of sialic acid analogs (SiaLev or SiaNAz) into cell surface glycoconjugates (cultured cells) | survival of mutant pups at P5 ([1]; intravenous (IV) injection at P1, ManNAc-Lipoplex in 2 different mouse backgrounds) [%] | survival of mutant pups at P5 [1, 3] [%] | survival rates [1] [%] | sialylation of hyposialylated cells [2]
1 | CC(=O)CCC(=O)N[C@@H]1C(O)O[C@H](CO)[C@@H](O)[C@@H]1O (some centres unmarked) [ManLev, N-levulinoylmannosamine] | resulted in incorporation of the downstream sialic acid analogs | – | – | – | –
2 | CC(=O)N[C@H]1[C@@H](O)[C@H](O)[C@@H](CO)O[C@H]1O [ManNAc, N-acetyl-D-mannosamine] | – | 8 | 48 | 48 | became resialylated
3 | CC(=O)N[C@H]1[C@H]([C@H](O)[C@H](O)CO)OC(O)(C(=O)O)C[C@@H]1O (some centres unmarked) [NANA, N-acetylneuraminic acid] | – | – | 10 | 10 | –
4 | [N-]=[N+]=NCC(=O)N[C@@H]1C(O)O[C@H](CO)[C@@H](O)[C@@H]1O (some centres unmarked) [ManNAz, N-azidoacetyl-mannosamine] | resulted in incorporation of the downstream sialic acid analogs | – | – | – | –
